From patent publication US20220323406A1, “METHODS AND COMPOSITIONS FOR DIFFERENTIATING STEM CELLS” (Massachusetts Institute of Technology, priority 2019, published 2022)

Experiments:
[1] = tested on: ENR+CD organoids (ISC to Paneth cell differentiation); experiment: Primary screen: CCh-stimulated lysozyme secretion LYZ.S, 2.5-D 384-well ENR+CD organoid differentiation; format: cell-based, mouse; settings: primary screen
Source text: (§1) High-throughput screening.

[2] = tested on: ENR+CD organoids (ISC to Paneth cell differentiation); experiment: Primary screen: basal (non-stimulated) lysozyme secretion LYZ.NS, 2.5-D 384-well ENR+CD organoid differentiation; format: cell-based, mouse
Source text: as §1

[3] = tested on: ENR+CD organoids; experiment: Primary screen: ATP (CellTiter-Glo 3D, CTG) cell number/viability, 2.5-D 384-well ENR+CD organoids; settings: primary screen; for Z.CTG: standard z score;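 for all read-outs here: compounds given at plating and again on day 3 over a 6-day differentiation from ENR+CV stem-cell-enriched precursors, ATP measured on day 6, plate median as control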
[4] = 1st dose row of the treatment (0.08 uM by row order; dose not reprinted)
[5] = 2nd dose row of the treatment (0.40 uM by row order; dose not reprinted)
[6] = 3rd dose row of the treatment (2.00 uM by row order; dose not reprinted)
[7] = 4th dose row of the treatment (10.00 uM by row order; dose not reprinted)
[8] = dose 0.08 uM, FC relative to plate median
[9] = dose 0.40 uM, FC relative to plate median
[10] = dose 2.00 uM, FC relative to plate median
[11] = dose 10.00 uM, FC relative to plate median
[12] = primary screen, dose 0.08 uM, FC relative to plate median
[13] = primary screen, dose 0.08 uM, standard z score
[14] = primary screen, dose 0.40 uM, FC relative to plate median
[15] = primary screen, dose 0.40 uM, standard z score
[16] = primary screen, dose 2.00 uM, FC relative to plate median
[17] = primary screen, dose 2.00 uM, standard z score
[18] = primary screen, dose 10.00 uM, FC relative to plate median
[19] = primary screen, dose 10.00 uM, standard z score

Compound	Dose.FC.LYZ.S ([1]; dose 0.08 uM)	Dose.FC.LYZ.S ([1]; dose 0.40 uM)	Dose.FC.LYZ.S ([1]; dose 2.00 uM)	Dose.FC.LYZ.S ([1]; dose 10.00 uM)	Dose.FC.LYZ.NS ([2]; primary screen, dose 0.08 uM)	Z.LYZ.NS (standard z score) ([2]; primary screen, dose 0.08 uM)	Dose.FC.LYZ.NS ([2]; primary screen, dose 0.40 uM)	Z.LYZ.NS (standard z score) ([2]; primary screen, dose 0.40 uM)	Dose.FC.LYZ.NS ([2]; primary screen, dose 2.00 uM)	Z.LYZ.NS (standard z score) ([2]; primary screen, dose 2.00 uM)	Dose.FC.LYZ.NS ([2]; primary screen, dose 10.00 uM)	Z.LYZ.NS (standard z score) ([2]; primary screen, dose 10.00 uM)	Dose.FC.CTG ([3]; dose 0.08 uM)	Dose.FC.CTG ([3]; dose 0.40 uM)	Dose.FC.CTG ([3]; dose 2.00 uM)	Dose.FC.CTG ([3]; dose 10.00 uM)	other results
C[C@H](Oc1cc(-c2cnn(C3CCNCC3)c2)cnc1N)c1c(Cl)ccc(F)c1Cl [(S)-crizotinib]	0.125 log2 fold change	0.016 log2 fold change	−0.059 log2 fold change	−0.111 log2 fold change	0.193 log2 fold change	1.679	0.009 log2 fold change	0.081	−0.034 log2 fold change	−0.294	−0.068 log2 fold change	−0.588	0.241 log2 fold change	0.054 log2 fold change	0.111 log2 fold change	0.019 log2 fold change	SSMD.LYZ.S_Rep (strictly standardized mean difference) [1, 4]: 0.881; Z.LYZ.S (standard z score) [1, 4]: 0.808; SSMD.LYZ.S_Rep (strictly standardized mean difference) [1, 5]: 0.084; Z.LYZ.S (standard z score) [1, 5]: 0.103; SSMD.LYZ.S_Rep (strictly standardized mean difference) [1, 6]: −0.343; Z.LYZ.S (standard z score) [1, 6]: −0.383; SSMD.LYZ.S_Rep (strictly standardized mean difference) [1, 7]: −0.491; Z.LYZ.S (standard z score) [1, 7]: −0.720; SSMD.LYZ.NS_Rep (strictly standardized mean difference) ([2]; primary screen, 1st dose row of the treatment (0.08 uM by row order; dose not reprinted)): 0.838; SSMD.LYZ.NS_Rep (strictly standardized mean difference) ([2]; primary screen, 2nd dose row of the treatment (0.40 uM by row order; dose not reprinted)): 0.094; SSMD.LYZ.NS_Rep (strictly standardized mean difference) ([2]; primary screen, 3rd dose row of the treatment (2.00 uM by row order; dose not reprinted)): −0.229; SSMD.LYZ.NS_Rep (strictly standardized mean difference) ([2]; primary screen, 4th dose row of the treatment (10.00 uM by row order; dose not reprinted)): −0.438; SSMD.CTG.Rep (strictly standardized mean difference) [3, 4]: 0.742; SSMD.CTG.Rep (strictly standardized mean difference) [3, 5]: 0.190; SSMD.CTG.Rep (strictly standardized mean difference) [3, 6]: 0.285; SSMD.CTG.Rep (strictly standardized mean difference) [3, 7]: 0.034; Z.CTG (standard z score) ([3]; dose 0.08 uM): 0.575; Z.CTG (standard z score) ([3]; dose 0.40 uM): 0.130; Z.CTG (standard z score) ([3]; dose 2.00 uM): 0.266; Z.CTG (standard z score) ([3]; dose 10.00 uM): 0.046
CC(=O)O[C@]1(C(C)=O)CC[C@H]2[C@@H]3C=C(Cl)C4=CC(=O)[C@@H]5C[C@@H]5[C@]4(C)[C@H]3CC[C@@]21C [Cyproterone Acetate]	0.040 log2 fold change	−0.019 log2 fold change	−0.093 log2 fold change	−0.134 log2 fold change	−0.026 log2 fold change	–	−0.074 log2 fold change	–	−0.055 log2 fold change	–	−0.081 log2 fold change	–	−0.110 log2 fold change	0.051 log2 fold change	−0.143 log2 fold change	−0.173 log2 fold change	Z.LYZ.NS ([2]; primary screen, standard z score, dose 0.08 uM): −0.225; Z.LYZ.NS ([2]; primary screen, standard z score, dose 0.40 uM): −0.642; Z.LYZ.NS ([2]; primary screen, standard z score, dose 2.00 uM): −0.479; Z.LYZ.NS ([2]; primary screen, standard z score, dose 10.00 uM): −0.702
Cc1cc2c(C(C)C)c(O)c(O)c(C=O)c2c(O)c1-c1c(C)cc2c(C(C)C)c(O)c(O)c(C=O)c2c1O [AT101]	0.004 log2 fold change	−0.013 log2 fold change	−0.085 log2 fold change	−0.061 log2 fold change	−0.049 log2 fold change	−0.426	−0.068 log2 fold change	−0.592	−0.036 log2 fold change	−0.311	−0.052 log2 fold change	−0.452	−0.198 log2 fold change	0.019 log2 fold change	−0.216 log2 fold change	−0.056 log2 fold change	–
COc1ccc(C(=O)Nc2sc3c(c2C(N)=O)CCCC3)cc1OC [TCS 359]	–	–	–	–	–	–	–	–	–	–	–	–	–	–	–	–	Dose.FC.LYZ.S [1, 8]: 0.098 log2 fold change; Dose.FC.LYZ.S [1, 9]: 0.069 log2 fold change; Dose.FC.LYZ.S [1, 10]: −0.006 log2 fold change; Dose.FC.LYZ.S [1, 11]: 0.026 log2 fold change; Dose.FC.LYZ.NS [2, 12]: 0.085 log2 fold change; Z.LYZ.NS [2, 13]: 0.742; Dose.FC.LYZ.NS [2, 14]: 0.058 log2 fold change; Z.LYZ.NS [2, 15]: 0.502; Dose.FC.LYZ.NS [2, 16]: 0.018 log2 fold change; Z.LYZ.NS [2, 17]: 0.156; Dose.FC.LYZ.NS [2, 18]: −0.008 log2 fold change; Z.LYZ.NS [2, 19]: −0.072; Dose.FC.CTG [3, 8]: 0.150 log2 fold change; Z.CTG ([3]; dose 0.08 uM): 0.358; Dose.FC.CTG [3, 9]: 0.250 log2 fold change; Z.CTG ([3]; dose 0.40 uM): 0.598; Dose.FC.CTG [3, 10]: 0.050 log2 fold change; Z.CTG ([3]; dose 2.00 uM): 0.119; Dose.FC.CTG [3, 11]: −0.089 log2 fold change; Z.CTG ([3]; dose 10.00 uM): −0.212
COc1ccc(C(=O)N2CCCC2=O)cc1 [Aniracetam]	0.043 log2 fold change	0.148 log2 fold change	0.005 log2 fold change	−0.028 log2 fold change	0.089 log2 fold change	0.774	0.056 log2 fold change	0.486	0.032 log2 fold change	0.277	0.012 log2 fold change	0.105	−0.088 log2 fold change	0.112 log2 fold change	0.054 log2 fold change	0.019 log2 fold change	–
CN(C)CCCCC(=O)Nc1ccc(NC(=S)NC(=O)c2ccc(C(C)(C)C)cc2)cc1 [Tenovin-6]	0.028 log2 fold change	−0.109 log2 fold change	−0.328 log2 fold change	−0.344 log2 fold change	0.121 log2 fold change	1.050	−0.053 log2 fold change	−0.463	−0.194 log2 fold change	−1.686	−0.192 log2 fold change	−1.671	0.069 log2 fold change	−0.506 log2 fold change	−1.111 log2 fold change	−1.429 log2 fold change	Z.CTG (standard z score) ([3]; dose 0.08 uM): 0.165; Z.CTG (standard z score) ([3]; dose 0.40 uM): −1.209; Z.CTG (standard z score) ([3]; dose 2.00 uM): −2.654; Z.CTG (standard z score) ([3]; dose 10.00 uM): −3.414
Cc1c(C(=O)NN2CCCCC2)nn(-c2ccc(Cl)cc2Cl)c1-c1ccc(Cl)cc1 [Rimonabant]	–	–	–	–	–	–	–	–	–	–	–	–	–	–	–	–	Dose.FC.LYZ.S [1, 8]: 0.089 log2 fold change; Dose.FC.LYZ.S [1, 9]: −0.003 log2 fold change; Dose.FC.LYZ.S [1, 10]: −0.053 log2 fold change; Dose.FC.LYZ.S [1, 11]: −0.098 log2 fold change; Dose.FC.LYZ.NS [2, 12]: 0.108 log2 fold change; Z.LYZ.NS [2, 13]: 0.936; Dose.FC.LYZ.NS [2, 14]: −0.063 log2 fold change; Z.LYZ.NS [2, 15]: −0.545; Dose.FC.LYZ.NS [2, 16]: −0.054 log2 fold change; Z.LYZ.NS [2, 17]: −0.467; Dose.FC.LYZ.NS [2, 18]: −0.044 log2 fold change; Z.LYZ.NS [2, 19]: −0.385; Dose.FC.CTG [3, 8]: 0.256 log2 fold change; Dose.FC.CTG [3, 9]: 0.206 log2 fold change; Dose.FC.CTG [3, 10]: 0.235 log2 fold change; Dose.FC.CTG [3, 11]: 0.063 log2 fold change
